Like-named read-outs stand apart in the source and are kept apart here.
Key:
[1] = test system: RS4;11 cells; experiment: Cell growth inhibition, 4-day proliferation assay (WST-8); format: cell-based; conditions: Homo sapiens, 96 h; RS4;11 cells, 4 days, WST-8; read-out: RS4; 11 Cells IC50
Method: The effect of representative Compounds of the Disclosure on cell viability was determined in a 4-day proliferation assay. Cells were maintained in the appropriate culture medium with 10% FBS at 37° C. and an atmosphere of 5% CO2. Also, the effect of a MDM2 inhibitor (Cpd. A; see Compound Example No. 22 of U.S. Pat. No. 8,629,141) and a known MDM2 degrader (Cpd. D, see Cpd. No. 175 of WO 2017/0176957) on cell viability in various cell lines is also included in Table 5. Cpd. […] A and D. The structure of Cpd. A is:
Cells were seeded in 96-well flat bottom (Corning COSTAR, Corning, N.Y., cat #3595) at a density of 2,000-3,000 cells/well in 100 μL of culture medium. Compounds were serially diluted in the appropriate medium, and 100 μL of the diluted compounds were added to the appropriate wells of the cell plate. After the addition of compounds, the cells were incubated at 37° C. in an atmosphere of 5% CO2 for 4 days. Cell viability was determined using the WST (2-(2-methoxy-4-nitrophenyl)-3-(4-nitrophenyl)-5-(2,4-disulfophenyl)-2H-tetrazolium, monosodium salt) Cell Counting-8 Kit (Dojindo Molecular Technologies, Inc., Rockville, Md.) according to the manufacturers' instructions.
WST-8 reagent was added to each well at a final concentration of 10% (v/v), and then the plates were incubated at 37° C. for 1-2 hours for color development. The absorbance was measured at 450 nm using a SPECTRAmax PLUS plate reader (Molecular Devices, Sunnyvale, Calif.). The readings were normalized to the DMSO-treated cells and the half maximal inhibitory concentration (IC50) was calculated by nonlinear regression (four parameters sigmoid fitted with variable slope, least squares fit, and no constraint) analysis using the GraphPad Prism 5 software (GraphPad Software, La Jolla, Calif.).

[2] = Separate PK experiment, plasma concentrations after oral dose; format: in vivo; conditions: mouse, 50 mg/kg, mice
Excerpt: In a separate PK experiment, the plasma concentrations of Cpd.

[3] = read-out: Plasma concentration, Average / Mean
[4] = read-out: Plasma concentration, Mouse 1
[5] = read-out: Plasma concentration, Mouse 2

IC50 [1]	SMILES	further results
> 100 nM	CC(C)[C@@H](CS(=O)(=O)C(C)C)N1C(=O)[C@@](C)(CC(=O)NCCCC#Cc2cccc3c2CN(C2CCC(=O)NC2=O)C3=O)C[C@H](c2cccc(Cl)c2)[C@H]1c1ccc(Cl)cc1 (stereo partly drawn) [Cpd. No. 37, 2-((3R,5R,6S)-5-(3-chlorophenyl)-6-(4-chlorophenyl)-1-((S)-1-(isopropylsulfonyl)-3-methylbutan-2-yl)-3-methyl-2-oxopiperidin-3-yl)-N-(5-(2-(2,6-dioxopiperidin-3-yl)-1-oxoisoindolin-4-yl)pent-4-yn-1-yl)acetamide]	–
> 100 nM	O=C1CCC(N2Cc3c(C#CC4CCN(C(=O)CC5CCN(C(=O)[C@@H]6NC7(CCCCC7)[C@@]7(C(=O)Nc8cc(Cl)ccc87)[C@H]6c6cccc(Cl)c6F)CC5)CC4)cccc3C2=O)C(=O)N1 (stereo partly drawn) [Cpd. No. 29, 3-(4-((1-(2-(1-((3′R,4′S,5′R)-6″-chloro-4′-(3-chloro-2-fluorophenyl)-2″-oxodispiro[cyclohexane-1,2′-pyrrolidine-3′,3″-indoline]-5′-carbonyl)piperidin-4-yl)acetyl)piperidin-4-yl)ethynyl)-1-oxoisoindolin-2-yl)piperidine-2,6-dione]	–
2.9 nM	CC1(C#Cc2cccc3c2CN(C2CCC(=O)NC2=O)C3=O)CCN(C(=O)C23CCC(NC(=O)[C@@H]4NC5(CCCCC5)[C@@]5(C(=O)Nc6cc(Cl)ccc65)[C@H]4c4cccc(Cl)c4F)(CC2)CC3)CC1 (stereo partly drawn) [Cpd. No. 31, (3′R,4′S,5′R)-6″-chloro-4′-(3-chloro-2-fluorophenyl)-N-(4-(4-((2-(2,6-dioxopiperidin-3-yl)-1-oxoisoindolin-4-yl)ethynyl)-4-methylpiperidine-1-carbonyl)bicyclo[2.2.2]octan-1-yl)-2″-oxodispiro[cyclohexane-1,2′-pyrrolidine-3′,3″-indoline]-5′-carboxamide]	–
2.4 nM	O=C1CCC(N2Cc3c(NC4CCN(CCCNC(=O)C56CCC(NC(=O)[C@@H]7NC8(CCCCC8)[C@@]8(C(=O)Nc9cc(Cl)ccc98)[C@H]7c7cccc(Cl)c7F)(CC5)CC6)CC4)cccc3C2=O)C(=O)N1 (stereo partly drawn) [Cpd. No. 1, (3′R,4′S,5′R)-6″-chloro-4′-(3-chloro-2-fluorophenyl)-N-(4-((3-(4-((2-(2,6-dioxopiperidin-3-yl)-1-oxoisoindolin-4-yl)amino)piperidin-1-yl)propyl)carbamoyl)bicyclo[2.2.2]octan-1-yl)-2″-oxodispiro[cyclohexane-1,2′-pyrrolidine-3′,3″-indoline]-5′-carboxamide]	–
> 100 nM	O=C1CCC(N2Cc3c(C#CCCCNC(=O)[C@H]4CC[C@H](NC(=O)[C@@H]5NC6(CCCCC6)[C@@]6(C(=O)Nc7cc(Cl)ccc76)[C@H]5c5ccccc5F)CC4)cccc3C2=O)C(=O)N1 (stereo partly drawn) [Cpd. No. 25, (3′R,4′S,5′R)-6″-chloro-N-(4-((5-(2-(2,6-dioxopiperidin-3-yl)-1-oxoisoindolin-4-yl)pent-4-yn-1-yl)carbamoyl)cyclohexyl)-4′-(2-fluorophenyl)-2″-oxodispiro[cyclohexane-1,2′-pyrrolidine-3′,3″-indoline]-5′-carboxamide]	–
1.2 nM	O=C1CCC(N2Cc3c(C#CC4CN(C(=O)C56CCC(NC(=O)[C@@H]7NC8(CCCCC8)[C@@]8(C(=O)Nc9cc(Cl)ccc98)[C@H]7c7cccc(Cl)c7F)(CC5)CC6)C4)cccc3C2=O)C(=O)N1 (stereo partly drawn) [Cpd. No. 33, (3′R,4′S,5′R)-6″-chloro-4′-(3-chloro-2-fluorophenyl)-N-(4-(3-((2-(2,6-dioxopiperidin-3-yl)-1-oxoisoindolin-4-yl)ethynyl)azetidine-1-carbonyl)bicyclo[2.2.2]octan-1-yl)-2″-oxodispiro [cyclohexane-1,2′-pyrrolidine-3′,3″-indoline]-5′-carboxamide]	–
11 nM	O=C1CCC(N2Cc3c(C#CC4CCN(C(=O)C56CCC(NC(=O)[C@@H]7NC8(CCCCC8)[C@@]8(C(=O)Nc9cc(Cl)ccc98)[C@H]7c7cccc(F)c7F)(CC5)CC6)CC4)cccc3C2=O)C(=O)N1 (stereo partly drawn) [Cpd. No. 14, (3′R,4′S,5′R)-6″-chloro-4′-(2,3-difluorophenyl)-N-(4-(4-((2-(2,6-dioxopiperidin-3-yl)-1-oxoisoindolin-4-yl)ethynyl)piperidine-1-carbonyl)bicyclo[2.2.2]octan-1-yl)-2″-oxodispiro[cyclohexane-1,2′-pyrrolidine-3′,3″-indoline]-5′-carboxamide]	concentration at 1 h [2, 3]: 3300 ng/mL; concentration at 1 h [2, 4]: 4060 ng/mL; concentration at 1 h [2, 5]: 2550 ng/mL; concentration at 3 h [2, 3]: 7460 ng/mL; concentration at 3 h [2, 4]: 6880 ng/mL; concentration at 3 h [2, 5]: 8050 ng/mL; concentration at 6 h [2, 3]: 8240 ng/mL; concentration at 6 h [2, 4]: 7660 ng/mL; concentration at 6 h [2, 5]: 8810 ng/mL
> 100 nM	O=C1CCC(N2Cc3c(C#CC4CCN(C(=O)CN5CCN(C(=O)[C@@H]6NC7(CCCCC7)[C@@]7(C(=O)Nc8cc(Cl)ccc87)[C@H]6c6cccc(Cl)c6F)CC5)CC4)cccc3C2=O)C(=O)N1 (stereo partly drawn) [Cpd. No. 7, 3-(4-((1-(2-(4-((3′R,4′S,5′R)-6″-chloro-4′-(3-chloro-2-fluorophenyl)-2″-oxodispiro[cyclohexane-1,2′-pyrrolidine-3′,3″-indoline]-5′-carbonyl)piperazin-1-yl)acetyl)piperidin-4-yl)ethynyl)-1-oxoisoindolin-2-yl)piperidine-2,6-dione]	–
6 nM	CC1(C)CCC2(CC1)N[C@@H](C(=O)NC13CCC(C(=O)N4CCC(C#Cc5cccc6c5CN(C5CCC(=O)NC5=O)C6=O)CC4)(CC1)CC3)[C@H](c1cccc(Cl)c1F)[C@]21C(=O)Nc2cc(Cl)ccc21 (stereo partly drawn) [Cpd. No. 13, (3′R,4′S,5′R)-6″-chloro-4′-(3-chloro-2-fluorophenyl)-N-(4-(4-((2-(2,6-dioxopiperidin-3-yl)-1-oxoisoindolin-4-yl)ethynyl)piperidine-1-carbonyl)bicyclo[2.2.2]octan-1-yl)-4,4-dimethyl-2″-oxodispiro[cyclohexane-1,2′-pyrrolidine-3′,3″-indoline]-5′-]	–
0.7 nM	O=C1CCC(N2Cc3c(C#CCCCNC(=O)[C@H]4CC[C@H](NC(=O)[C@@H]5NC6(CCCCC6)[C@@]6(C(=O)Nc7cc(Cl)ccc76)[C@H]5c5cccc(Cl)c5)CC4)cccc3C2=O)C(=O)N1 (stereo partly drawn) [Cpd. No. 26, (3′R,4′R,5′R)-6″-chloro-4′-(3-chlorophenyl)-N-((1r,4R)-4-((5-(2-(2,6-dioxopiperidin-3-yl)-1-oxoisoindolin-4-yl)pent-4-yn-1-yl)carbamoyl)cyclohexyl)-2″-oxodispiro[cyclohexane-1,2′-pyrrolidine-3′,3″-indoline]-5′-carboxamide]	–
1.2 nM	CC1(C#Cc2cccc3c2CN(C2CCC(=O)NC2=O)C3=O)CCN(C(=O)[C@H]2CC[C@H](NC(=O)[C@@H]3NC4(CCCCC4)[C@@]4(C(=O)Nc5cc(Cl)ccc54)[C@H]3c3cccc(Cl)c3F)CC2)CC1 (stereo partly drawn) [Cpd. No. 30, (3′R,4′S,5′R)-6″-chloro-4′-(3-chloro-2-fluorophenyl)-N-(4-(4-((2-(2,6-dioxopiperidin-3-yl)-1-oxoisoindolin-4-yl)ethynyl)-4-methylpiperidine-1-carbonyl)cyclohexyl)-2″-oxodispiro[cyclohexane-1,2′-pyrrolidine-3′,3″-indoline]-5′-carboxamide]	–
0.3 nM	O=C1CCC(N2Cc3c(C#CC4CCN(C(=O)C56CC(NC(=O)[C@@H]7NC8(CCCCC8)[C@@]8(C(=O)Nc9cc(Cl)ccc98)[C@H]7c7cccc(Cl)c7F)(C5)C6)CC4)cccc3C2=O)C(=O)N1 (stereo partly drawn) [Cpd. No. 11, (3′R,4′S,5′R)-6″-chloro-4′-(3-chloro-2-fluorophenyl)-N-(3-(4-((2-(2,6-dioxopiperidin-3-yl)-1-oxoisoindolin-4-yl)ethynyl)piperidine-1-carbonyl)bicyclo[1.1.1]pentan-1-yl)-2″-oxodispiro[cyclohexane-1,2′-pyrrolidine-3′,3″-indoline]-5′-carboxamide]	–

Reference: patent US20210309666A1, “SMALL MOLECULE MDM2 PROTEIN DEGRADERS” (THE REGENTS OF THE UNIVERSITY OF MICHIGAN, priority 2018, published 2021)
